Series [1] has as its system patient derived organoids. It counts as cell-based, human. The following applies: for % Cell Death: organoid cell death. An excerpt:
A few of the above drug products, as well as additional drugs were tried for response to patient derived organoids.

For series [2], the system named is patient derived organoids (PD3D Cell Culture). The series can be described thus: Calculated IC50 in PD3D cell culture of the patient derived organoids. The series is classed as cell-based, human.
The subject of series [3] is patient derived endometrial cancer organoids. Briefly: Carboplatin alone or with Cannabis extract, endometrial cancer organoids. The series is classed as cell-based, human. An excerpt:
To determine if this premise is conserved over different chemotherapeutic agents, Applicant repeated the tests replacing paclitaxel with carboplatin toward a related gynecological cancer cell, endometrial cancer cells. The surprising findings with paclitaxel were further confirmed by testing the impacts of carboplatin alone or carboplatin with a Cannabis extract.
Finally, with a dose of 250 μm/mL carboplatin, a 2.5× in the dose from the […] test, all of the combined therapeutics with carboplatin and Cannabis extract are below 10% viability, while the carboplatin alone remains at above 30%.

In series [4] the test system is cancer organoid. The series can be described thus: Effect of pH of the Cannabis extract on organoid viability. The series is classed as cell-based, human. The following applies: pH 8. As for the experimental part: A further interesting observation was determined by the impacts of pH on the efficacy of the Cannabis extract on organoid data. […] In each case, the control vehicle, buffered to the same pH was ineffective in killing the cells at all, and thus was not depicted. […] However, pH of 12, and certainly of 14 are highly corrosive, alkaline concentrations and are not suitable for therapeutic use.
Accordingly, when providing the Cannabis extract for therapeutic administration, […] yields an unexpected increase in efficacy.

Series [5] relates to patient derived chemosensitive and chemoresistant ovarian cancer organoids. The series can be described thus: Four Cannabis extracts on newly obtained ovarian cancer organoids, viability. The series is classed as cell-based, human. As to the method:
Applicant then tested several different Cannabis extracts at varying concentrations on newly obtained patient derived chemosensitive and chemoresistant ovarian cancer organoids. […] Here, the BSHE continued to work at virtually the same level as prior tests, even though these organoids were generated from different patients than all prior tests. […] However, what remains constant is that at or about 10 μg/mL, virtually all patient derived organoid samples begin to or reach zero viability.

The test system of series [6] is chemoresistant ovarian cancer organoid.
Experimental: To culture patient-derived organoids, 2-3×10^3 cells were plated in a pre-warmed (37° C.) 96-well plate in 10 mL of Matrigel (5%FBS AD+++ medium) per well. Individual patient cell organoid was cultured separately in different plates. Individual patient cells were handled separately to reduce the chance of cross-contamination. After mixing cells with Matrigel, 10 mL droplets were placed in wells and put in a 37° C. incubator with 5% CO2 for 30 minutes. Upon solidification of the Matrigel droplet with cells inside, the plate was placed inside a sterile hood and immersed the Matrigel droplet in 200 μL of organoid growth media. Cells were allowed to grow into mature organoids for 14 days. […] All treatments were done in triplicate, including vehicle-only controls (Dimethyl sulfoxide in culture medium at the highest concentration used for drug treatments).
To assess the cell viability in organoids after treatments, CellTiter-Glo® Luminescent Assay (Promega #G7572) was used. In brief, on day 14 of organoid culture, the matrigel droplet in each well with organoid inside was immersed in 100 μL of fresh growth media and 100 μL of CellTiter-Glo® reagent following the manufacturer's guideline. Blank wells containing only media and CellTiter Glo® reagent (no cells) were also included in each plate. Then the plates were put on a shaker @ 110 rpm at room temperature for 5 minutes to induce cell lysis, followed by 25 minutes at room temperature to stabilize the luminescent signal. Each step after adding the CellTiter Glo® reagent was performed in the dark. Luminescence was measured on a FLUOstar OPTIMA plate reader (BMG Lab technologies, Offenburg, Germany). Analysis was performed by normalizing treatment values to the vehicle control and plotting them as a percentage of the vehicle control. Drug IC50 values were determined by inhibitor vs normalized response-variable slope using least squares regression in Graphpad Prism 9.
In series [7] the test system is chemosensitive ovarian cancer cells, derived from ascites cells. The following applies: for viability: human, 14 days.
For series [8], the system named is patient derived endometrial cancer cells. The series is classed as in vivo, mice. As to conditions: paclitaxel alone 10 mg/kg (30.007 mg/m^2), 21 days. As for the experimental part: Human patient cells from endometrial cancer were injected subcutaneously into female NOD/SCID gamma mice after resuspending in 100 μL solution. […] All treatment group mice were kept alive for up to 10 weeks after drug injection or until the tumor volume grows bigger than 2500 mm^3.

In brackets after ≈: the same amount, converted by molar mass. Where two headings read alike, the source gives them in different places.

For 5-Fluorouaracil/Capecitabine, the “% Cell Death” value in series [1] turned out to be 61%.
Take `O=C1O[C@H]([C@@H](O)CO)C(O)=C1O` [Ascorbic Acid]: the “Calculated IC50 PD3D Cell Culture” value in series [2] is “Not Reached”.
One may read the IC50 as the concentration needed to halve the response being measured. As usually defined, the viability is a read-out of living cells in per cent, often relative to untreated cells. Read a high viability as better survival. In series [3] (Homo sapiens, extract alone), `C=C(C)[C@@H]1CCC(C)=C[C@H]1c1c(O)cc(CCCCC)cc1O` [CBD isolate, cannabidiol] gave an IC50 of 3 µg/mL (≈ 9.54 µM). Further, in series [3] (carboplatin 50 μm/mL with IC50 amount of extract), the viability was roughly 37%. For the same compound, the “improvement in viability on adding the extract” value in series [3] (carboplatin 100 μm/mL plus IC50 amount of extract) was found to be 32%. The “killing of the organoids compared with native pH” value in series [4] is “virtually no change”. The compound further displayed a viability at 15 µg/mL in series [5] (Homo sapiens, 15 μg/mL, all samples) of 0%. Besides, the viability at 20 µg/mL in series [5] (Homo sapiens, 20 μg/mL, all samples) was 0%.
For `C=C(C)[C@@H]1CCC(C)=C[C@H]1c1c(O)cc(CCCCC)c(C(=O)O)c1O` [CBDA, cannabidiolic acid], the viability entry in series [5] (50 μg/mL) is reported as “nearing zero viability”.
Regarding `CO[C@H]1C(=O)[C@]2(C)[C@@H](OC)C[C@H]3OC[C@@]3(OC(C)=O)[C@H]2[C@H](OC(=O)c2ccccc2)[C@]2(O)C[C@H](OC(=O)[C@H](O)[C@@H](NC(=O)OC(C)(C)C)c3ccccc3)C(C)=C1C2(C)C` [Cabazitaxel], the “% Cell Death” value in series [1] was found to be 37%.
Regarding `N.N.O=C([O-])C1(C(=O)[O-])CCC1.[Pt+2]` [Carboplatin], the viability entry in series [3] (carboplatin alone 50 μg/mL) and in series [3] (carboplatin alone 100 μg/mL) was “about 50%” throughout. Further, the “total drop in viability on increasing the dose by 5×” value in series [3] (carboplatin alone 50 to 250 μm/mL) is recorded as “about 17%”. Further, the “% Cell Death” value in series [1] came to 30%.
Consider `N.N.[Cl][Pt][Cl]` [Cisplatin], for which the “% Cell Death” value in series [1] is recorded as 36%.
For `O=C(c1ccc(F)c(F)c1Nc1ccc(I)cc1F)N1CC(O)([C@@H]2CCCCN2)C1` [Cobimetinib], the “Calculated IC50 PD3D Cell Culture” value in series [2] was “Not Reached”.
Still for that read-out and setting: the result for `C[C@@H](Oc1cc(-c2cnn(C3CCNCC3)c2)cnc1N)c1c(Cl)ccc(F)c1Cl` [Crizotinib] reads “Not Reached”.
With `O=P1(N(CCCl)CCCl)NCCCO1` (stereo not drawn) [Cyclosphosphamide], the “% Cell Death” value in series [1] came out at 32%.
Same read-out and setting: for `CN(C)/N=N/c1[nH]cnc1C(N)=O` [Dacarbazine] the value was 32%.
Turning to `O=C(O)C(Cl)Cl` [Dichloracetate], the “Calculated IC50 PD3D Cell Culture” value in series [2] was “Not Reached”.
With `CC(=O)O[C@@]12CO[C@@H]1C[C@H](O)[C@@]1(C)C(=O)[C@H](O)C3=C(C)[C@@H](OC(=O)[C@H](O)[C@@H](NC(=O)OC(C)(C)C)c4ccccc4)C[C@@](O)([C@@H](OC(=O)c4ccccc4)[C@H]21)C3(C)C` [Docetaxel], in series [1], the “% Cell Death” value is listed as “No Response”.
Same read-out and setting: the result for `COc1cccc2c1C(=O)c1c(O)c3c(c(O)c1C2=O)C[C@@](O)(C(=O)CO)C[C@@H]3O[C@H]1C[C@H](N)[C@H](O)[C@H](C)O1` [Doxorubicin] reads 39%; that for `COc1cc([C@@H]2c3cc4c(cc3[C@@H](O[C@@H]3O[C@@H]5CO[C@@H](C)O[C@H]5[C@H](O)[C@H]3O)[C@H]3COC(=O)[C@H]23)OCO4)cc(OC)c1O` [Etoposide], 33%; that for `Nc1ccn([C@@H]2O[C@H](CO)[C@@H](O)C2(F)F)c(=O)n1` [Gemcitabine], 56%.
Turning to `N[C@@H](CCC(=O)N[C@@H](CS)C(=O)NCC(=O)O)C(=O)O` [Glutathione], the “Calculated IC50 PD3D Cell Culture” value in series [2] is “Not Reached”.
Same read-out and setting: for `CCN(CCO)CCCC(C)Nc1ccnc2cc(Cl)ccc12` (stereo not drawn) [Hydroxychloroquine] the value was “Not Reached”.
For `CCc1c2c(nc3ccc(OC(=O)N4CCC(N5CCCCC5)CC4)cc13)-c1cc3c(c(=O)n1C2)COC(=O)[C@]3(O)CC` [Irinotecan], the “% Cell Death” value in series [1] is given as 51%.
`COc1cc2nccc(Oc3ccc(NC(=O)NC4CC4)c(Cl)c3)c2cc1C(N)=O` [Lenvatinib]: the “Calculated IC50 PD3D Cell Culture” value in series [2] is given as “Not Reached”.
Consider `N[C@@H](Cc1ccc(N(CCCl)CCCl)cc1)C(=O)O` [Melphalan], for which the “% Cell Death” value in series [1] worked out at 40%.
For the compound `CN(C)C(=N)N=C(N)N` [Metformin], the “Calculated IC50 PD3D Cell Culture” value in series [2] is listed as “Not Reached”.
As to `O=C1c2c(O)ccc(O)c2C(=O)c2c(NCCNCCO)ccc(NCCNCCO)c21` [Mitoxantrone], the “% Cell Death” value in series [1] is given as 50%.
As for `O=C(c1cc(Cc2n[nH]c(=O)c3ccccc23)ccc1F)N1CCN(C(=O)C2CC2)CC1` [Olaparib], in series [2], the “Calculated IC50 PD3D Cell Culture” value is “Not Reached”.
Consider `CC(=O)O[C@H]1C(=O)[C@@]2(C)[C@H]([C@H](OC(=O)c3ccccc3)[C@]3(O)C[C@H](OC(=O)[C@H](O)[C@@H](NC(=O)c4ccccc4)c4ccccc4)C(C)=C1C3(C)C)[C@]1(OC(C)=O)CO[C@@H]1C[C@@H]2O` [Paclitaxel], for which the viability in series [6] (paclitaxel alone 4 nm/mL) is given as 45%; in series [6] (paclitaxel alone, 5× more (20 nm/mL)), 42%; in series [7] (4 nm/mL) it was “about 89%”; in series [7] (20 nm/mL), “about 57%”. In addition, in series [6] (paclitaxel alone 4 to 20 nm/mL), the “change in viability on adding 5× more paclitaxel” value was “about 3%”. The “change in viability on increasing the dose by 5×” value in series [7] (paclitaxel alone 4 to 20 nm/mL) came out at 32%. Further, the overall kill rate result in series [7] (paclitaxel alone, highest dose (20 nm/mL)) was “less than 50%”. In addition, in series [1], the “% Cell Death” value is on record as 39%. Also, the “effect on tumor volume / tumor growth” value in series [8] was “ineffective in reducing tumor growth”; in series [8] (listed as paclitaxel) it was “in essence ineffective”.
Turning to `Nc1nc2[nH]cc(CCc3ccc(C(=O)N[C@@H](CCC(=O)O)C(=O)O)cc3)c2c(=O)[nH]1` [Pemetrexed], the “% Cell Death” value in series [1] is listed as “No Response”. For the same compound, in series [2], the “Calculated IC50 PD3D Cell Culture” value is reported as “Not Reached”.
As for `Nc1cccc2c1C(=O)N(C1CCC(=O)NC1=O)C2=O` (stereo not drawn) [Pomalidomide], the “Calculated IC50 PD3D Cell Culture” value in series [2] is recorded as “Not Reached”.
Still for that read-out and setting: for `CCN(CC)CCNC(=O)c1c(C)[nH]c(/C=C2\C(=O)Nc3ccc(F)cc32)c1C` [Sunitnib] the value was “Not Reached”.
In the case of `Cn1nnc2c(C(N)=O)ncn2c1=O` [Temozolomide], the “% Cell Death” value in series [1] came to 40%.
The same measure, in the same setting: for `COc1cc2c(cc1O)CCN[C@]21CS[C@@H]2c3c(OC(C)=O)c(C)c4c(c3[C@H](COC1=O)N1[C@@H]2[C@H]2c3c(cc(C)c(OC)c3O)C[C@@H]([C@@H]1O)N2C)OCO4` [Trabectedine] the value was 32%; for `CC[C@]1(O)C[C@@H]2CN(CCc3c([nH]c4ccccc34)[C@@](C(=O)OC)(c3cc4c(cc3OC)N(C)[C@H]3[C@@](O)(C(=O)OC)[C@H](OC(C)=O)[C@]5(CC)C=CCN6CC[C@]43[C@@H]65)C2)C1` [Vinblastine], 38%; for `CCC1=C[C@@H]2CN(C1)Cc1c([nH]c3ccccc13)[C@@](C(=O)OC)(c1cc3c(cc1OC)N(C)[C@H]1[C@@](O)(C(=O)OC)[C@H](OC(C)=O)[C@]4(CC)C=CCN5CC[C@]31[C@@H]54)C2` [Vinorelbine], 45%.
As for `COc1cccc2c1C(=O)c1c(O)c3c(c(O)c1C2=O)C[C@@](O)(C(=O)CO)C[C@@H]3O[C@H]1C[C@H](N)[C@@H](O)[C@H](C)O1` [epirubicin], the “% Cell Death” value in series [1] is recorded as “No Response”.
The same measure, in the same setting: the result for `C=C1C[C@@H]2CC[C@@]34C[C@H]5O[C@H]6[C@@H](O3)[C@H]3O[C@H](CC[C@@H]3O[C@H]6[C@H]5O4)CC(=O)C[C@@H]3[C@@H](OC)[C@@H](C[C@H](O)CN)O[C@H]3C[C@H]3O[C@@H](CC[C@@H]1O2)C[C@@H](C)C3=C` [eribulin] reads “No Response”; that for `O=P1(NCCCl)OCCCN1CCCl` (stereo not drawn) [ifosfamide], “No Response”; that for `CN(Cc1cnc2nc(N)nc(N)c2n1)c1ccc(C(=O)N[C@@H](CCC(=O)O)C(=O)O)cc1` [methotrexate], “No Response”.
Still for that read-out and setting: the result for `CO[C@@]12[C@H](COC(N)=O)C3=C(C(=O)C(C)=C(N)C3=O)N1C[C@@H]1N[C@@H]12` [mitomycin] reads “No Response”; that for `O=C1[O][Pt]2([NH][C@@H]3CCCC[C@H]3[NH]2)[O]C1=O` [oxaliplatin], “No Response”.
Still for that read-out and setting: the result for `CC[C@]1(O)C[C@H]2CN(CCc3c([nH]c4ccccc34)[C@@](C(=O)OC)(c3cc4c(cc3OC)N(C=O)[C@H]3[C@@](O)(C(=O)OC)[C@H](OC(C)=O)[C@]5(CC)C=CCN6CC[C@]43[C@@H]65)C2)C1` [vincristine] reads “No Response”.
Consider Bevacizumab, for which the “Calculated IC50 PD3D Cell Culture” value in series [2] is reported as “Not Reached”.
For Bleomycin, the “% Cell Death” value in series [1] is recorded as 53%.
Take gemcitabine/capecitabine [GemCap]: the “response of the patient's organoid” value in series [1] (organoid of the chemoresistant endometrial cancer patient) was “partial response”.

(Values after patent US12440528B2, “Methods of treating ovarian cancer with hemp extract” (Ecofibre USA Inc., priority 2021, dated 2025).)
